Results taken from ChEMBL document CHEMBL1133815, “Anti-Trypanosoma activity of some natural stilbenoids and synthetic related heterocyclic compounds” (Bioorg Med Chem Lett, 2001).
Converted amounts (≈) assume the structure as drawn. “And” between values parts separate entries of the source, which are not always exact repeats. Identical values can stand only once.

Tests used:
Trypanosoma cruzi [1] = experiment: Inhibitory concentration against trypomastigotes (Y strain) of Trypanosoma cruzi; Inactive; assay type: functional, organism-based
Trypanosoma cruzi [2] = experiment: Inhibitory concentration against epimastigotes (Tulahuen strain) of Trypanosoma cruzi; Inactive; assay type: functional, organism-based
Trypanosoma cruzi [3] = experiment: Inhibitory concentration against Trypomastigotes (Y strain) of Trypanosoma cruzi; assay type: functional, organism-based
Trypanosoma cruzi [4] = experiment: Inhibitory concentration against Epimastigotes (Tulahuen strain) of Trypanosoma cruzi; assay type: functional, organism-based
[5] = Ratio of inhibitory concentration to that of reference drug was determined; assay type: functional
[6] = Trypanosoma cruzi, read-out: IC50

`COc1ccc(C(=O)C(=O)c2ccccc2C(=O)N2CCCCC2)cc1OC` gave an IC50 (Trypanosoma cruzi [1]) greater than 100 µg/mL and an IC50 (Trypanosoma cruzi [2]) greater than 100 µg/mL.
With `COc1ccc(Cc2nnc(O)c3ccccc23)cc1` the IC50 (Trypanosoma cruzi [1]) was greater than 100 µg/mL and the IC50 (Trypanosoma cruzi [2]) was greater than 100 µg/mL.
`Oc1nnc(Cc2ccc(Cl)cc2)c2ccccc12` showed an IC50 (Trypanosoma cruzi [1]) greater than 100 µg/mL and an IC50 (Trypanosoma cruzi [2]) greater than 100 µg/mL.
For `COc1ccc(C(=O)C(=O)c2ccccc2C(=O)N2CCCCC2)cc1`, the IC50 (Trypanosoma cruzi [1]) was greater than 100 µg/mL and the IC50 (Trypanosoma cruzi [2]) was greater than 100 µg/mL.
`COc1ccc(CC(=O)c2ccccc2C(=O)N2CCCCC2)cc1` gave an IC50 (Trypanosoma cruzi [1]) greater than 100 µg/mL and an IC50 (Trypanosoma cruzi [2]) greater than 100 µg/mL.
For `COc1ccc(CCc2cc(O)cc(OC)c2)cc1`, the IC50 (Trypanosoma cruzi [1]) was greater than 100 µg/mL and the IC50 (Trypanosoma cruzi [2]) was greater than 100 µg/mL.
With `CN(C)c1ccc(C(=C2C=CC(=[N+](C)C)C=C2)c2ccc(N(C)C)cc2)cc1.[Cl-]` [GENTIAN VIOLET] the IC50 (Trypanosoma cruzi [3]; [6]) was 100 µg/mL and 245 µM.
With `OC1(Cc2ccc(Cl)cc2)c2ccccc2C2=NCCCN21` (stereo unspecified) the IC50 (Trypanosoma cruzi [1]) was greater than 100 µg/mL.
With `OC1(Cc2ccccc2)c2ccccc2C2=NCCCN21` (stereo unspecified) the IC50 (Trypanosoma cruzi [1]) was greater than 100 µg/mL.
With `COc1cc(C(=O)C(=O)c2ccccc2C(=O)N2CCCCC2)cc(OC)c1OC` the IC50 (Trypanosoma cruzi [1]) was greater than 100 µg/mL.
Compound `COc1ccc(CCc2cc(O)cc(OC)c2C(=O)O)cc1` [ISONOTHOLAENIC ACID] has an IC50 (Trypanosoma cruzi [1]) greater than 100 µg/mL.
Work on `COc1ccc(CC2(O)c3ccccc3C3=NCCCN32)cc1` (stereo unspecified) yielded an IC50 (Trypanosoma cruzi [1]) greater than 100 µg/mL and an IC50 (Trypanosoma cruzi [2]) greater than 100 µg/mL.
In the case of `Cn1nc(Cc2ccc3c(c2)OCO3)c2ccccc2c1=O`, the IC50 (Trypanosoma cruzi [1]) is reported as greater than 100 µg/mL and the IC50 (Trypanosoma cruzi [2]) is reported as greater than 100 µg/mL.
`COc1cc(/C=C2\OC(=O)c3ccccc32)cc(OC)c1OC` gave an IC50 (Trypanosoma cruzi [1]) greater than 100 µg/mL and an IC50 (Trypanosoma cruzi [2]) greater than 100 µg/mL.
`OC1(Cc2ccc3c(c2)OCO3)c2ccccc2C2=NCCCN21` (stereo unspecified) showed an IC50 (Trypanosoma cruzi [1]) greater than 100 µg/mL and an IC50 (Trypanosoma cruzi [2]) greater than 100 µg/mL.
For `O=C1O/C(=C\c2ccccc2)c2ccccc21`, the IC50 (Trypanosoma cruzi [1]) was greater than 100 µg/mL and the IC50 (Trypanosoma cruzi [2]) was 45 µg/mL (≈ 202 µM).
With `O=C(Cn1ccnc1[N+](=O)[O-])NCc1ccccc1` [BENZNIDAZOLE] the IC50 (Trypanosoma cruzi [4]) was 7.4 µg/mL and 30 µM and the Ratio [5] was 1.
`OC1(Cc2ccccc2)c2ccccc2C2=NCCN21` (stereo unspecified) showed an IC50 (Trypanosoma cruzi [1]) greater than 100 µg/mL.
For `COc1ccc(Cc2nn(C)c(=O)c3ccccc23)cc1`, the IC50 (Trypanosoma cruzi [1]) was greater than 100 µg/mL and the IC50 (Trypanosoma cruzi [2]) was greater than 100 µg/mL.
With `O=C(Cc1ccc2c(c1)OCO2)c1ccccc1C(=O)N1CCCCC1` the IC50 (Trypanosoma cruzi [1]) was greater than 100 µg/mL and the IC50 (Trypanosoma cruzi [2]) was greater than 100 µg/mL.
For `OC1(Cc2ccc3c(c2)OCO3)c2ccccc2C2=NCCN21` (stereo unspecified), the IC50 (Trypanosoma cruzi [1]) was greater than 100 µg/mL and the IC50 (Trypanosoma cruzi [2]) was greater than 100 µg/mL.
For `O=C1O/C(=C\c2ccc3c(c2)OCO3)c2ccccc21`, the IC50 (Trypanosoma cruzi [1]) was greater than 100 µg/mL and the IC50 (Trypanosoma cruzi [2]) was greater than 100 µg/mL.
`COc1cc(CC2(O)c3ccccc3C3=NCCCN32)cc(OC)c1OC` (stereo unspecified) showed an IC50 (Trypanosoma cruzi [1]) greater than 100 µg/mL and an IC50 (Trypanosoma cruzi [2]) greater than 100 µg/mL.
Work on `COc1ccc(Cc2nnc(O)c3ccccc23)cc1OC` yielded an IC50 (Trypanosoma cruzi [1]) greater than 100 µg/mL and an IC50 (Trypanosoma cruzi [2]) greater than 100 µg/mL.
Work on `COc1ccc(/C=C2\OC(=O)c3ccccc32)cc1` yielded an IC50 (Trypanosoma cruzi [1]) greater than 100 µg/mL and an IC50 (Trypanosoma cruzi [2]) greater than 100 µg/mL.
Compound `COc1ccc(CCc2cc(OC(C)=O)cc(OC)c2C(=O)O)cc1` has an IC50 (Trypanosoma cruzi [1]) greater than 100 µg/mL and an IC50 (Trypanosoma cruzi [2]) greater than 100 µg/mL.
Work on `O=C1O/C(=C\c2ccc(Cl)cc2)c2ccccc21` yielded an IC50 (Trypanosoma cruzi [1]) greater than 100 µg/mL and an IC50 (Trypanosoma cruzi [2]) greater than 100 µg/mL.
Compound `O=c1[nH]nc(Cc2ccccc2)c2ccccc12` has an IC50 (Trypanosoma cruzi [1]) greater than 100 µg/mL and an IC50 (Trypanosoma cruzi [2]) greater than 100 µg/mL.
Compound `O=C(C(=O)c1ccccc1C(=O)N1CCCCC1)c1ccc2c(c1)OCO2` has an IC50 (Trypanosoma cruzi [1]) greater than 100 µg/mL and an IC50 (Trypanosoma cruzi [2]) greater than 100 µg/mL.
Work on `O=C(Cc1ccc(Cl)cc1)c1ccccc1C(=O)N1CCCCC1` yielded an IC50 (Trypanosoma cruzi [1]) greater than 100 µg/mL and an IC50 (Trypanosoma cruzi [2]) greater than 100 µg/mL.
Work on `COc1ccc(CC(=O)c2ccccc2C(=O)N2CCCCC2)cc1OC` yielded an IC50 (Trypanosoma cruzi [1]) greater than 100 µg/mL and an IC50 (Trypanosoma cruzi [2]) greater than 100 µg/mL.
Compound `O=C(Cc1ccccc1)c1ccccc1C(=O)N1CCCCC1` has an IC50 (Trypanosoma cruzi [1]) greater than 100 µg/mL and an IC50 (Trypanosoma cruzi [2]) greater than 100 µg/mL.
Work on `COc1ccc(C(=O)C(=O)c2ccccc2C(=O)N2CCCC2)cc1` yielded an IC50 (Trypanosoma cruzi [1]) greater than 100 µg/mL and an IC50 (Trypanosoma cruzi [2]) greater than 100 µg/mL.
With `COC(=O)c1c(CCc2ccc(OC)cc2)cc(O)cc1OC` the IC50 (Trypanosoma cruzi [1]) was greater than 100 µg/mL and the IC50 (Trypanosoma cruzi [2]) was greater than 100 µg/mL.
`O=C(C(=O)c1ccccc1C(=O)N1CCCCC1)c1ccccc1` gave an IC50 (Trypanosoma cruzi [1]) greater than 100 µg/mL and an IC50 (Trypanosoma cruzi [2]) greater than 100 µg/mL.
`COc1ccc(Cc2nn(C)c(=O)c3ccccc23)cc1OC` showed an IC50 (Trypanosoma cruzi [1]) greater than 100 µg/mL and an IC50 (Trypanosoma cruzi [2]) greater than 100 µg/mL.
In the case of `COc1cc(Cc2nn(C)c(=O)c3ccccc23)cc(OC)c1OC`, the IC50 (Trypanosoma cruzi [1]) is reported as greater than 100 µg/mL and the IC50 (Trypanosoma cruzi [2]) is reported as greater than 100 µg/mL.
With `O=C(C(=O)c1ccccc1C(=O)N1CCCCC1)c1ccc(Cl)cc1` the IC50 (Trypanosoma cruzi [1]) was greater than 100 µg/mL and the IC50 (Trypanosoma cruzi [2]) was greater than 100 µg/mL.
In the case of `Cn1nc(Cc2ccc(Cl)cc2)c2ccccc2c1=O`, the IC50 (Trypanosoma cruzi [1]) is reported as greater than 100 µg/mL and the IC50 (Trypanosoma cruzi [2]) is reported as greater than 100 µg/mL.
In the case of `COc1ccc(CC2(O)c3ccccc3C3=NCCCN32)cc1OC` (stereo unspecified), the IC50 (Trypanosoma cruzi [1]) is reported as greater than 100 µg/mL and the IC50 (Trypanosoma cruzi [2]) is reported as greater than 100 µg/mL.
Work on `COc1cc(CC(=O)c2ccccc2C(=O)N2CCCCC2)cc(OC)c1OC` yielded an IC50 (Trypanosoma cruzi [1]) greater than 100 µg/mL.
Compound `COc1ccc(/C=C2\OC(=O)c3ccccc32)cc1OC` has an IC50 (Trypanosoma cruzi [1]) greater than 100 µg/mL and an IC50 (Trypanosoma cruzi [2]) greater than 100 µg/mL.
For `CCNC(=O)c1ccccc1C(=O)C(=O)c1ccc(OC)cc1`, the IC50 (Trypanosoma cruzi [1]) was greater than 100 µg/mL and the IC50 (Trypanosoma cruzi [2]) was greater than 100 µg/mL.
For `COc1ccc(CCc2cc(O)cc(OC)c2C(=O)N2CCCCC2)cc1`, the IC50 (Trypanosoma cruzi [3]) was 12 µg/mL and 33 µg/mL and the IC50 (Trypanosoma cruzi [4]) was 30 µg/mL and 81.3 µM.
`COc1cc(Cc2nnc(O)c3ccccc23)cc(OC)c1OC` gave an IC50 (Trypanosoma cruzi [1]) greater than 100 µg/mL and an IC50 (Trypanosoma cruzi [2]) greater than 100 µg/mL.
With `Cn1nc(Cc2ccccc2)c2ccccc2c1=O` the IC50 (Trypanosoma cruzi [1]) was greater than 100 µg/mL and the IC50 (Trypanosoma cruzi [2]) was greater than 100 µg/mL.
In the case of `COc1ccc(CC2(O)c3ccccc3C3=NCCN32)cc1OC` (stereo unspecified), the IC50 (Trypanosoma cruzi [1]) is reported as greater than 100 µg/mL and the IC50 (Trypanosoma cruzi [2]) is reported as greater than 100 µg/mL.
With `COc1ccc(CC2(O)c3ccccc3C3=NCCN32)cc1` (stereo unspecified) the IC50 (Trypanosoma cruzi [1]) was greater than 100 µg/mL.
For `Oc1nnc(Cc2ccc3c(c2)OCO3)c2ccccc12`, the IC50 (Trypanosoma cruzi [1]) was greater than 100 µg/mL and the IC50 (Trypanosoma cruzi [2]) was greater than 100 µg/mL.
For `OC1(Cc2ccc(Cl)cc2)c2ccccc2C2=NCCN21` (stereo unspecified), the IC50 (Trypanosoma cruzi [3]; [6]) was 7.9 µM, the IC50 (Trypanosoma cruzi [1]) was 2.3 µg/mL (≈ 7.7 µM) and the IC50 (Trypanosoma cruzi [4]) was 33.6 µM. It also gave an IC50 (Trypanosoma cruzi [2]) of 10 µg/mL (≈ 33.5 µM).
Work on `COc1cc(CC2(O)c3ccccc3C3=NCCN32)cc(OC)c1OC` (stereo unspecified) yielded an IC50 (Trypanosoma cruzi [1]) greater than 100 µg/mL and an IC50 (Trypanosoma cruzi [2]) greater than 100 µg/mL.
